Test results: US10130693B2, “Peptides, combination of peptides and scaffolds for use in immunotherapeutic treatment of various cancers” (Immatics Biotechnologies GmbH, priority 2015, dated 2018)

Assays:
[1] = system: HLA-A*24; assay: MHC binding assay, UV-ligand exchange with beta2m ELISA (exchange yield), HLA-A*24; design: species or system human; settings: binding to HLA-A*24, UV-ligand exchange
Summary of the method: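 Peptide–MHC complexes formed by UV-ligand exchange: a UV-cleavable peptide is replaced by the test peptide, and only binders keep the complex stable. Exchange yield read by streptavidin-capture ELISA on reactions diluted 100-fold, detected with HRP anti-β2m (2 ug/ml, 1 h, 37° C) and TMB at 450 nm.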

[2] = system: CD8+ T cells; assay: In vitro immunogenicity: T-cell priming with aAPCs loaded with HLA-A*24 peptide/MHC and anti-CD28, multimer staining; assay type: cell-based, human; settings: HLA-A*24 peptides
Description: CD8+ T cells were primed using artificial APCs coated with anti-CD28 mAb and HLA-A*24 in complex with SEQ ID NO: 99 peptide (FIG. 5A, left panel), SEQ ID NO: 119 peptide (FIG. 5B, left panel), SEQ ID NO: 142 peptide (FIG. 5C, left panel) and SEQ ID NO: 174 peptide FIG. 5 (D, left panel), respectively. After three cycles of stimulation, the detection of peptide-reactive cells was performed by 2D multimer staining with A*24/SEQ ID NO: 99 (FIG. 5A), A*24/SEQ ID NO: 119 (FIG. 5B), A*24/SEQ ID NO: 142 (FIG. 5C) or A*24/SEQ ID NO: 174 (FIG. 5D). Right panels (FIGS. 5A,5B,5C and 5D) show control staining of cells stimulated with irrelevant A*24/peptide complexes. Viable singlet cells were gated for CD8+ lymphocytes. Boolean gates helped excluding false-positive events detected with multimers specific for different peptides. Frequencies of specific multimer+ cells among CD8+ lymphocytes are indicated.
Generation of pMHC/anti-CD28 coated beads, T-cell stimulations and readout was performed in a highly defined in vitro system using four different pMHC molecules per stimulation condition and 8 different pMHC molecules per readout condition.
The purified co-stimulatory mouse IgG2a anti human CD28 Ab 9.3 (Jung et al., 1987) was chemically biotinylated using Sulfo-N-hydroxysuccinimidobiotin as recommended by the manufacturer (Perbio, Bonn, Germany). Beads used were 5.6 μm diameter streptavidin coated polystyrene particles (Bangs Laboratories, Illinois, USA).
800.000 beads/200 μl were coated in 96-well plates in the presence of 4×12.5 ng different biotin-pMHC, washed and 600 ng biotin anti-CD28 were added subsequently in a volume of 200 μl. Stimulations were initiated in 96-well plates by co-incubating 1×10^6 CD8+ T cells with 2×10^5 washed coated beads in 200 μl TCM supplemented with 5 ng/ml IL-12 (PromoCell) for 3 days at 37° C. Half of the medium was then exchanged by fresh TCM supplemented with 80 U/ml IL-2 and incubating was continued for 4 days at 37° C. This stimulation cycle was performed for a total of three times. For the pMHC multimer readout using 8 different pMHC molecules per condition, a two-dimensional combinatorial coding approach was used as previously described (Andersen et al., 2012) with minor modifications encompassing coupling to 5 different fluorochromes. Finally, multimeric analyses were performed by staining the cells with Live/dead near IR dye (Invitrogen, Karlsruhe, Germany), CD8-FITC antibody clone SK1 (BD, Heidelberg, Germany) and fluorescent pMHC multimers. For analysis, a BD LSRII SORP cytometer equipped with appropriate lasers and filters was used. Peptide specific cells were calculated as percentage of total CD8+ cells. Evaluation of multimeric analysis was done using the FlowJo software (Tree Star, Oregon, USA). In vitro priming of specific multimer+CD8+ lymphocytes was detected by comparing to negative control stimulations.

| Substance | Peptide exchange (MHC class I binding score, peptide exchange yield) [1] | in vitro immunogenicity, Wells positive [%] [2] |
| --- | --- | --- |
| 174 (VYEKNGYIYF; listed as Homo sapiens) [compound 174] | +++ (50%-75% = +++) | ++++ (>=70% = ++++) |
| 363 (SYAELGTTI; listed as Homo sapiens) [compound 363] | ++ (20%-49% = ++) | + (<20% = +) |
| 162 (KYTSYILAF; listed as Homo sapiens) [compound 162] | ++ (20%-49% = ++) | + (<20% = +) |
| 367 (LYQDHMQYI; listed as Homo sapiens) [compound 367] | ++ (20%-49% = ++) | ++ (20%-49% = ++) |
| 164 (HYVPATKVF; listed as Homo sapiens) [compound 164] | +++ (50%-75% = +++) | + (<20% = +) |
| 358 (YYSEVPVKL; listed as Homo sapiens) [compound 358] | +++ (50%-75% = +++) | ++++ (>=70% = ++++) |
| 171 (NYEDHFPLL; listed as Homo sapiens) [compound 171] | +++ (50%-75% = +++) | ++ (20%-49% = ++) |
| 142 (VYVDDIYVI; listed as Homo sapiens) [compound 142] | +++ (50%-75% = +++) | ++++ (>=70% = ++++) |
| 186 (VFTTSSNIF; listed as Homo sapiens) [compound 186] | ++++ (>=75% = ++++) | + (<20% = +) |
| 122 (EYQARIPEF; listed as Homo sapiens) [compound 122] | +++ (50%-75% = +++) | ++ (20%-49% = ++) |
| 359 (NYGVLHVTF; listed as Homo sapiens) [compound 359] | ++++ (>=75% = ++++) | + (<20% = +) |
| 350 (KYGNFIDKL; listed as Homo sapiens) [compound 350] | +++ (50%-75% = +++) | +++ (50%-69% = +++) |
| 119 (VYRVYVTTF; listed as Homo sapiens) [compound 119] | +++ (50%-75% = +++) | +++ (50%-69% = +++) |
| 105 (IYNETITDLL; listed as Homo sapiens) [compound 105] | +++ (50%-75% = +++) | + (<20% = +) |
| 161 (KYPDIVQQF; listed as Homo sapiens) [compound 161] | +++ (50%-75% = +++) | + (<20% = +) |
| 155 (IYKWITDNF; listed as Homo sapiens) [compound 155] | ++++ (>=75% = ++++) | ++ (20%-49% = ++) |
| 114 (QYLDGTWSL; listed as Homo sapiens) [compound 114] | ++++ (>=75% = ++++) | +++ (50%-69% = +++) |
| 180 (KYLQVVGMF; listed as Homo sapiens) [compound 180] | +++ (50%-75% = +++) | + (<20% = +) |
